Laboratory results: patent US12486302B2, “Somatostatin receptor antagonist compounds and methods of using the same” (CDRD VENTURES INC., priority 2016, dated 2025)
pIC50: −log10 of the molar value. *1 amine or outer side, *2 acyl side, *3 side chain or, on linkers, in order; H or OH if unused. Where a SMILES comes first, the peptide text is derived from it. Bridges are numbered along the chain shown (N, C = ends). Side-chain parts run from the residue outwards. [ ]: non-standard residue; d: D form. The star is where a group is joined. dPhe(4-CH2NHCONH2) = NC(=O)NCc1ccc(C[C@@H](N)C(=O)O)cc1; X3 = O=C([C@@H](Cc1ccc(NCCN2CCOCC2)cc1)N[*:1])[*:2]; X2 = CCCCCNc1ccc(C[C@@H](N[*:1])C(=O)[*:2])cc1; dPhe(4-NH2) = Nc1ccc(C[C@@H](N)C(=O)O)cc1; Phe(4-Cl) = N[C@@H](Cc1ccc(Cl)cc1)C(=O)O; Ethyl(2-morpholino) = C1CN(CC*)CCO1; dCit = NC(=O)NCCC[C@@H](N)C(=O)O; Cit = NC(=O)NCCC[C@H](N)C(=O)O

What was measured:
Assay type in all cases: cell-based
Conditions in all cases: agonist challenge at EC80
SSTR4 = SSTR4 (Homo sapiens, UniProt P31391); assay: PathHunter β-Arrestin assay, antagonist mode, SSTR4
Chain of SSTR4 (P31391 whole entry, the tested form may be a part): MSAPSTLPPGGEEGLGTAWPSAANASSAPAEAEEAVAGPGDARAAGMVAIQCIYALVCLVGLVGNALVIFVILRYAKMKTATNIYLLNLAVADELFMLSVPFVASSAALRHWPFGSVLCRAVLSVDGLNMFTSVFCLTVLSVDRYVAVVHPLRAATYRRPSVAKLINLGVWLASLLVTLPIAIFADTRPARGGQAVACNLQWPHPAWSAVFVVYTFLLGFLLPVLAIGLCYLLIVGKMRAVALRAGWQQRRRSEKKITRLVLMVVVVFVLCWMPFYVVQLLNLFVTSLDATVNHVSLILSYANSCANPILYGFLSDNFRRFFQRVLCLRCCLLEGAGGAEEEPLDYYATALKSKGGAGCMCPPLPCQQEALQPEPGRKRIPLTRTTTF
Description: (§1) The PathHunter® β-Arrestin assay monitors the activation of a GPCR in a homogenous, non-imaging assay format using a technology developed by DiscoveRx called Enzyme Fragment Complementation (EFC) with β-galactosidase (β-Gal) as the functional reporter. […] EA is fused to β-Arrestin and […] is fused to the GPCR of interest. When the GPCR is activated and β-Arrestin is recruited to the receptor, ED and EA complementation occurs, restoring β-Gal activity which is measured using chemiluminescent PathHunter® Detection Reagents. For antagonist determination, cells were pre-incubated with the compounds followed by agonist challenge at the EC80 concentration. Data was normalized to the maximal and minimal response observed in the presence of EC80 ligand and vehicle. Compound activity was analyzed using CBIS data analysis suite ChemInnovation, CA). Percentage inhibition was calculated using the following formula: % Inhibition=100%×(1−(mean signal of test sample-mean signal of vehicle control)/(mean signal of EC80 control-mean signal of vehicle control)). Percentage inhibition was calculated at 10 concentrations in steps on a Log 3 scale ranging from […] to 5e-5 μM. The results were plotted for IC50 calculation.

SSTR5 = SSTR5 (Homo sapiens, UniProt P35346); assay: PathHunter β-Arrestin assay, antagonist mode, SSTR5
Chain of SSTR5 (P35346 whole entry): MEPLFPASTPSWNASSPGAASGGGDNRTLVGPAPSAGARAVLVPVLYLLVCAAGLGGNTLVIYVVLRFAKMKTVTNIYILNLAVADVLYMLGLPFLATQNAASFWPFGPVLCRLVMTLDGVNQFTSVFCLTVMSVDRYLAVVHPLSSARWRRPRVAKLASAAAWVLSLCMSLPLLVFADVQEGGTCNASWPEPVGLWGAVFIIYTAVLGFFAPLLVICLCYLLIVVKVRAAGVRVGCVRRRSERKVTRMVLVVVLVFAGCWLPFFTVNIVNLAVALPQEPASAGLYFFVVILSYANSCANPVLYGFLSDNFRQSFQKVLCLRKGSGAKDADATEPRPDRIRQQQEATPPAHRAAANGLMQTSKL
Description: as §1

SSTR1 = SSTR1 (Homo sapiens, UniProt P30872); assay: PathHunter β-Arrestin assay, antagonist mode, SSTR1
Chain of SSTR1 (P30872 whole entry): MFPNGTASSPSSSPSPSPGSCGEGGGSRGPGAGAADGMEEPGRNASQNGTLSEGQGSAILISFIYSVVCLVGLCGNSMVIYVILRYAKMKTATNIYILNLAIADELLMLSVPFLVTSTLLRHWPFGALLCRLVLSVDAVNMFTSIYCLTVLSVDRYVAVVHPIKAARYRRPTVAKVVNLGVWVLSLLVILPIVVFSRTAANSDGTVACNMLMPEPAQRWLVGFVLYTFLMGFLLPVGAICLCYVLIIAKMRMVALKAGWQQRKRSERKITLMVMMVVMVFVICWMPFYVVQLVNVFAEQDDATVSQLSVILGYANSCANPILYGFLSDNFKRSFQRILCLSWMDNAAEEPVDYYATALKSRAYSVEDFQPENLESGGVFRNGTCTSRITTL
Description: as §1

[1] = molecular target: somatostatin type 2 (SSTR2) receptors (Homo sapiens, UniProt P30874); assay: PathHunter β-Arrestin assay, antagonist mode, SSTR2
Chain of somatostatin type 2 (SSTR2) receptors (P30874 whole entry): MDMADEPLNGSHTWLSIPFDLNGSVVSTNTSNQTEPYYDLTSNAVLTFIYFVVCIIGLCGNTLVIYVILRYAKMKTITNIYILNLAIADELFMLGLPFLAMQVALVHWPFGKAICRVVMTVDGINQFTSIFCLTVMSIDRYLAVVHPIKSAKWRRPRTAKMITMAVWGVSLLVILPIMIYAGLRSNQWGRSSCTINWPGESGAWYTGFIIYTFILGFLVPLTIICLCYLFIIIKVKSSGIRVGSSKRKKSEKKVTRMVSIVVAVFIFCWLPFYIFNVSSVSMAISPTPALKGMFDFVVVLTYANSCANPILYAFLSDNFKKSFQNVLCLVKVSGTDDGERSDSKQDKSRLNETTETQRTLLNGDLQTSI
In short: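 Cells co-expressing PK-tagged human receptor and EA-β-Arrestin were pre-incubated with compound, then challenged with agonist at EC80. β-Gal complementation read by chemiluminescence; % inhibition normalized to EC80 and vehicle controls at 10 concentrations (log 3 steps from 1 μM down to 5e-5 μM), fitted for IC50.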

SSTR3 = SSTR3 (Homo sapiens, UniProt P32745); assay: PathHunter β-Arrestin assay, antagonist mode, SSTR3
Chain of SSTR3 (P32745 whole entry): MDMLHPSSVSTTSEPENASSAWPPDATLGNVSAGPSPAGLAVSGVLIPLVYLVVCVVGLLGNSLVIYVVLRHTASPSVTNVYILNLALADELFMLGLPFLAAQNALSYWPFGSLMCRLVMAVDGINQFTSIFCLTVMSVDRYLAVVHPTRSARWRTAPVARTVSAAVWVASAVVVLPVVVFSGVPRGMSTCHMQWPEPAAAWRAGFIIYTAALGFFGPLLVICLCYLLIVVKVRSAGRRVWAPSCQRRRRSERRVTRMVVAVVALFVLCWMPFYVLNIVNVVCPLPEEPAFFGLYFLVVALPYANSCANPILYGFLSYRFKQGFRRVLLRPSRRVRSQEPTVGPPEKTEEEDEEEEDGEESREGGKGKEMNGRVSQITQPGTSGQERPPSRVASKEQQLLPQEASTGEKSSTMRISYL
Description: as §1

pIC50 (SSTR4)	pIC50 (SSTR5)	pIC50 (SSTR1)	pIC50 [1]	pIC50 (SSTR3)	Structure (SMILES)
< 6.00	< 6.00	< 6.00	7.47	< 6.00	C[C@@H](O)[C@@H]1NC(=O)[C@H](CCCCN)NC(=O)[C@@H](CCCNC(N)=O)NC(=O)[C@H](Cc2ccc(O)cc2)NC(=O)[C@H](NC(=O)[C@@H](N)Cc2ccc(Cl)cc2)CSSC[C@@H](C(=O)N[C@H](Cc2ccc(O)cc2)C(N)=O)NC1=O [Compound 1, H-Cpa-cyclo[D-Cys-Tyr-D-Cit-Lys-Thr-Cys]-D-Tyr-NH2] (H-[Phe(4-Cl)][dC]Y[dCit]KTC[dY]-NH2; disulfide 2-7)
< 6.00	< 6.00	< 6.00	7.51	< 6.00	C[C@@H](O)[C@@H]1NC(=O)[C@H](CCCCN)NC(=O)[C@@H](Cc2ccc(CNC(N)=O)cc2)NC(=O)[C@H](Cc2ccc(O)cc2)NC(=O)[C@H](NC(=O)[C@@H](N)Cc2ccc(Cl)cc2)CSSC[C@@H](C(=O)N[C@H](Cc2ccc(O)cc2)C(N)=O)NC1=O [Compound 7, H-Cpa-cyclo[DCys- Tyr-D-(4- ureidomethyl) Phe-Lys- Thr-Cys]-DTyr-NH2] (H-[Phe(4-Cl)][dC]Y[dPhe(4-CH2NHCONH2)]KTC[dY]-NH2; disulfide 2-7)
–	–	–	6.98	< 6.00	CC(=O)NCC(=O)Nc1ccc(C[C@H]2NC(=O)[C@H](Cc3ccc(O)cc3)NC(=O)[C@H](NC(=O)[C@@H](N)Cc3ccc(Cl)cc3)CSSC[C@@H](C(=O)N[C@H](Cc3ccc(O)cc3)C(N)=O)NC(=O)[C@H]([C@@H](C)O)NC(=O)[C@H](CCCCN)NC2=O)cc1 [Compound 9, H-Cpa-cyclo[DCys- Tyr-D-4-(Gly- Ac)Aph- Lys-Thr-Cys]- DTyr-NH2] (H-[Phe(4-Cl)][dC]Y[dPhe(4-NH2)]([Gly-Ac])KTC[dY]-NH2; disulfide 2-7)
–	–	–	< 6.00	< 6.00	C[C@@H](O)[C@@H]1NC(=O)[C@H](CCCCN)NC(=O)[C@@H](Cc2ccc(NC(=O)[C@@H]3CCCN3)cc2)NC(=O)[C@H](Cc2ccc(O)cc2)NC(=O)[C@H](NC(=O)[C@@H](N)Cc2ccc(Cl)cc2)CSSC[C@@H](C(=O)N[C@H](Cc2ccc(O)cc2)C(N)=O)NC1=O [Compound 10, H-Cpa-cyclo[DCys- Tyr-D-4-(Pro) Aph-Lys- Thr-Cys]- DTyr-NH2] (H-[Phe(4-Cl)][dC]Y[dPhe(4-NH2)](Pro)KTC[dY]-NH2; disulfide 2-7)
–	–	–	6.61	< 6.00	C[C@@H](O)[C@@H]1NC(=O)[C@H](CCCCN)NC(=O)[C@@H](Cc2ccc(NCCN3CCOCC3)cc2)NC(=O)[C@H](Cc2ccc(O)cc2)NC(=O)[C@H](NC(=O)[C@@H](N)Cc2ccc(Cl)cc2)CSSC[C@@H](C(=O)N[C@H](Cc2ccc(O)cc2)C(N)=O)NC1=O [Compound 11, H-Cpa-cyclo [DCys-Tyr- D-4-(2-(4- morpholinyl) ethyl)Aph- Lys-Thr-Cys]- DTyr-NH2] (H-[Phe(4-Cl)][dC]Y[X3]KTC[dY]-NH2; disulfide 2-7)
< 6.00	< 6.00	< 6.00	7.77	< 6.00	CCCCCNc1ccc(C[C@H]2NC(=O)[C@H](Cc3ccc(O)cc3)NC(=O)[C@H](NC(=O)[C@@H](N)Cc3ccc(Cl)cc3)CSSC[C@@H](C(=O)N[C@H](Cc3ccc(O)cc3)C(N)=O)NC(=O)[C@H]([C@@H](C)O)NC(=O)[C@H](CCCCN)NC2=O)cc1 [Compound 12, H-Cpa-cyclo[D-Cys-Tyr-D-Phe(4-n-pentylamino)-Lys-Thr-Cys]-D-Tyr-NH2] (H-[Phe(4-Cl)][dC]Y[X2]KTC[dY]-NH2; disulfide 2-7)
–	–	–	6.48	< 6.00	C[C@@H](O)[C@@H]1NC(=O)[C@H](CCCCN)NC(=O)[C@@H](Cc2ccc(OCCN3CCOCC3)cc2)NC(=O)[C@H](Cc2ccc(O)cc2)NC(=O)[C@H](NC(=O)[C@@H](N)Cc2ccc(Cl)cc2)CSSC[C@@H](C(=O)N[C@H](Cc2ccc(O)cc2)C(N)=O)NC1=O [Compound 13, H-Cpa-cyclo[DCys- Tyr-D-(2-(4- morpholinyl)ethyl) Tyr-Lys-Thr- Cys]-DTyr-NH2] (H-[Phe(4-Cl)][dC]Y[dY](Ethyl(2-morpholino))KTC[dY]-NH2; disulfide 2-7)
–	–	–	6.63	< 6.00	C[C@@H](O)[C@@H]1NC(=O)[C@H](CCCCN)NC(=O)[C@@H](Cc2ccc(NC(=O)[C@@H](N)CO)cc2)NC(=O)[C@H](Cc2ccc(O)cc2)NC(=O)[C@H](NC(=O)[C@@H](N)Cc2ccc(Cl)cc2)CSSC[C@@H](C(=O)N[C@H](Cc2ccc(O)cc2)C(N)=O)NC1=O [Compound 16, H-Cpa-cyclo[DCys- Tyr-D-4-(Ser) Aph-Lys-Thr- Cys]-DTyr-NH2] (H-[Phe(4-Cl)][dC]Y[dPhe(4-NH2)](Ser)KTC[dY]-NH2; disulfide 2-7)
–	–	–	< 6.00	< 6.00	C[C@@H](O)[C@@H]1NC(=O)[C@H](CCCCN)NC(=O)[C@@H](Cc2ccc(NC(=O)[C@@H](N)CCCCN)cc2)NC(=O)[C@H](Cc2ccc(O)cc2)NC(=O)[C@H](NC(=O)[C@@H](N)Cc2ccc(Cl)cc2)CSSC[C@@H](C(=O)N[C@H](Cc2ccc(O)cc2)C(N)=O)NC1=O [Compound 17, H-Cpa-cyclo[DCys- Tyr-D-4-(Lys) Aph-Lys-Thr- Cys]-DTyr-NH2] (H-[Phe(4-Cl)][dC]Y[dPhe(4-NH2)](Lys)KTC[dY]-NH2; disulfide 2-7)
–	–	–	< 6.00	< 6.00	C[C@@H](O)[C@@H]1NC(=O)[C@H](CCCCN)NC(=O)[C@@H](Cc2ccc(NC(=O)[C@@H](N)CC(=O)O)cc2)NC(=O)[C@H](Cc2ccc(O)cc2)NC(=O)[C@H](NC(=O)[C@@H](N)Cc2ccc(Cl)cc2)CSSC[C@@H](C(=O)N[C@H](Cc2ccc(O)cc2)C(N)=O)NC1=O [Compound 18, H-Cpa-cyclo[DCys- Tyr-D-4-(Asp) Aph-Lys-Thr- Cys]-DTyr-NH2] (H-[Phe(4-Cl)][dC]Y[dPhe(4-NH2)](Asp)KTC[dY]-NH2; disulfide 2-7)
–	–	–	< 6.00	< 6.00	C[C@@H](O)[C@@H]1NC(=O)[C@H](CCCCN)NC(=O)[C@@H](Cc2ccc(NC(=O)[C@@H](N)CC(N)=O)cc2)NC(=O)[C@H](Cc2ccc(O)cc2)NC(=O)[C@H](NC(=O)[C@@H](N)Cc2ccc(Cl)cc2)CSSC[C@@H](C(=O)N[C@H](Cc2ccc(O)cc2)C(N)=O)NC1=O [Compound 19, H-Cpa-cyclo[DCys- Tyr-D-4-(Asn) Aph-Lys-Thr- Cys]-DTyr-NH2] (H-[Phe(4-Cl)][dC]Y[dPhe(4-NH2)](Asn)KTC[dY]-NH2; disulfide 2-7)
–	–	–	6.03	< 6.00	C[C@@H](O)[C@@H]1NC(=O)[C@H](CCCCN)NC(=O)[C@@H](Cc2ccc(NC(=O)[C@@H](N)CCC(=O)O)cc2)NC(=O)[C@H](Cc2ccc(O)cc2)NC(=O)[C@H](NC(=O)[C@@H](N)Cc2ccc(Cl)cc2)CSSC[C@@H](C(=O)N[C@H](Cc2ccc(O)cc2)C(N)=O)NC1=O [Compound 20, H-Cpa-cyclo[DCys- Tyr-D-4-(Glu)Aph- Lys-Thr-Cys]- DTyr-NH2] (H-[Phe(4-Cl)][dC]Y[dPhe(4-NH2)](Glu)KTC[dY]-NH2; disulfide 2-7)
–	–	–	< 6.00	< 6.00	C[C@@H](O)[C@@H]1NC(=O)[C@H](CCCCN)NC(=O)[C@@H](Cc2ccc(NC(=O)[C@@H](N)CCC(N)=O)cc2)NC(=O)[C@H](Cc2ccc(O)cc2)NC(=O)[C@H](NC(=O)[C@@H](N)Cc2ccc(Cl)cc2)CSSC[C@@H](C(=O)N[C@H](Cc2ccc(O)cc2)C(N)=O)NC1=O [Compound 21, H-Cpa-cyclo[DCys- Tyr-D-4-(Gln)Aph- Lys-Thr-Cys]- DTyr-NH2] (H-[Phe(4-Cl)][dC]Y[dPhe(4-NH2)](Gln)KTC[dY]-NH2; disulfide 2-7)
–	–	–	6.38	< 6.00	C[C@@H](O)[C@@H]1NC(=O)[C@H](CCCCN)NC(=O)[C@@H](Cc2ccc(NC(=O)[C@@H](N)CCCNC(N)=O)cc2)NC(=O)[C@H](Cc2ccc(O)cc2)NC(=O)[C@H](NC(=O)[C@@H](N)Cc2ccc(Cl)cc2)CSSC[C@@H](C(=O)N[C@H](Cc2ccc(O)cc2)C(N)=O)NC1=O [Compound 22, H-Cpa-cyclo[DCys- Tyr-D-4-(Cit)Aph- Lys-Thr-Cys]- DTyr-NH2] (H-[Phe(4-Cl)][dC]Y[dPhe(4-NH2)](Cit)KTC[dY]-NH2; disulfide 2-7)
–	–	–	6.34	< 6.00	CC(C)[C@H](N)C(=O)Nc1ccc(C[C@H]2NC(=O)[C@H](Cc3ccc(O)cc3)NC(=O)[C@H](NC(=O)[C@@H](N)Cc3ccc(Cl)cc3)CSSC[C@@H](C(=O)N[C@H](Cc3ccc(O)cc3)C(N)=O)NC(=O)[C@H]([C@@H](C)O)NC(=O)[C@H](CCCCN)NC2=O)cc1 [Compound 23, H-Cpa-cyclo[DCys- Tyr-D-4-(Val)Aph- Lys-Thr-Cys]- DTyr-NH2] (H-[Phe(4-Cl)][dC]Y[dPhe(4-NH2)](Val)KTC[dY]-NH2; disulfide 2-7)
